Data published in patent US3944498A, “Germicidal detergent containing a thienyliodonium salt” (The Dow Chemical Company, priority 1973, dated 1976).

Experiments:
S. aureus = test: Nutrient agar growth test, S. aureus (Example 3); assay type: cell-based; conditions: 0.001 percent by weight, 2 days, 35°C
From the text: (§1) The 4-chlorophenyl-2-thienyliodonium chloride, trifluoroacetate and trichloroacetate salts are dispersed in melted nutrient agar to produce culture media containing 0.001 percent by weight of one of the salt compounds. Such melted media are then poured into petri dishes and the solidified surface in each dish inoculated with a 24-hour broth culture, one of the organisms S. aureus and S. typhosa. In a check operation, petri dishes containing unmodified nutrient agar are each individually inoculated in the same manner with the named organisms. After two days' incubation at 35°C. the agar surface in each dish is examined for microbial growth. […] At the time of these observations the check dishes are found to support a heavy growth of the two named organisms.

S. typhosa = test: Nutrient agar growth test, S. typhosa (Example 3); assay type: cell-based; conditions: 0.001 percent by weight, 2 days, 35°C
From the text: as §1

[1] = tested on: organisms of mold and mildew; test: Protection of latex paint on wood panels from mold and mildew, tropical chamber; conditions: 0.3 percent by weight in latex paint, two months, 95 percent RH, 82°F
Description: 4-Chlorophenyl-2-thienyliodonium chloride is employed in a paint composition to protect the paint from attack and subsequent degradation by the organisms of mold and mildew. In such operations, the salt compound is dispersed and incorporated in the latex paint in the amount of 0.3 percent by weight of the ultimate paint composition.
The paint employed in these operations is prepared by intimately blending a pigment dispersion with a letdown including a synthetic latex comprising an interpolymer of ethyl acrylate, methyl methacrylate, acrylic acid and methacrylic acid. The paint has the following composition.
Wood panels are then painted with the modified compositions as well as with the unmodified paint. The panels are dried and thereafter exposed two months in a tropical chamber at a relative humidity of 95 percent and a temperature of 82°F. (28°C.). Following this period, the wood panels are examined to ascertain what control of […] is obtained.

A. aerogenes = test: Agar plate kill test with Ivory soap, A. aerogenes; assay type: cell-based; conditions: Klebsiella aerogenes, 48 h, read-out: Percent Kill of A. aerogenes
Description: Phenyl-2-thienyliodonium chloride, 2,2'-bisthienyliodonium chloride, and, for comparative purposes, diphenyliodonium chloride are individually dispersed in Ivory soap to provide concentrates containing 1 part by weight of iodonium salt to 50 parts by weight of soap. The soap concentrates are serially dispersed and serially diluted with liquid nutrient agar at 42°C. to prepare culture media containing various concentrations of one of the iodonium salts. The culture media are uniformly inoculated with S. aureus and plated in petri dishes. The inoculation is carried out from broth cultures of the named organism containing about 5×10^8 organisms per milliliter in the proportion of one-tenth milliliter of bacterial culture per 20 milliliters of cultur medium containing each test compound. In a check operation, nutrient agar containing the same amount of Ivory soap is similarly inoculated with the same organism. After two days' incubation at 37°C., the plates are examined for microbial growth.
The procedure described above is repeated with varying concentrations of 4-chlorophenyl-2-thienyliodonium chloride, 3,4-dichlorophenyl-2-thienyliodonium chloride, and for comparative purposes bis(4-chlorophenyl)iodonium chloride, phenyl-4-chlorophenyliodonium chloride and bis(2,4-dichlorophenyl)iodoniumchloride in a series of tests wherein the culture media are inoculated individually with the organism A. aerogenes.
The procedure described above is once again repeated with each of 2,2'-bisthienyliodonium chloride, phenyl-2-thienyliodonium chloride, 4-bromophenyl-2-thienyliodonium chloride, bis(4-bromophenyl)iodonium chloride and bis(4-bromophenyl)iodonium bromide in a series of tests wherein the culture media are inoculated individually with the organism A. aerogenes.

[2] = Oral median lethal dose in Sprague-Dawley (Cox strain) rats; assay type: in vivo; conditions: rat, in vivo, po; for LD50: 7 and 14 days
Description: (§2) The oral median lethal dose (LD50) of ClPhThICl was also determined in Sprague-Dawley (Cox strain) rats within a weight range of 93 to 118 grams. Five groups of rats, each consisting of 10 males and 10 females, were given the compound in an aqueous 0.5 percent METHOCEL hydroxypropyl methylcellulose (4000 cps.) suspension at a concentration of 300 mg/ml. The compound was administered as a single oral dose at 0.2 logarithmic dose intervals (709, 1120, 1780, 2820, 4450 mg/kg), and the following mortality experience was noted:
(§3) The percent of total mortalities occurring was 53.9, 79.3, 85.7 and 93.6 at 6, 24, 48 and 72 hours post-treatment, respectively. The last death occurred between 72 and 96 hours post-treatment in male rats in the 1780 and 4450 mg/kg groups.

[3] = tested on: Sprague-Dawley (Cox strain) rats; test: as above; assay type: in vivo
Description: as §2, §3

Clc1ccc([I+]c2cccs2)cc1.[Cl-] [4-Chlorophenyl-2-thienyliodonium chloride]
microbial growth on agar surface (S. aureus): free of microbial growth
microbial growth on agar surface (S. typhosa): free of microbial growth
control of growth of mold and mildew on painted panels [1]: complete control of the growth of the organisms of mold and mildew
killing at 1 ppm (A. aerogenes): 100%
LD50 ([2]; female rats, 95% confidence limits 785-1540 mg/kg): 1100 mg/kg
LD50 ([2]; male rats, 95% confidence limits 1171-2296 mg/kg): 1640 mg/kg
LD50 at 24 h ([2]; female rats, 95% confidence limits 1230-2080 mg/kg): 1600 mg/kg
LD50 at 24 h ([2]; male rats, 95% confidence limits 1241-2610 mg/kg): 1800 mg/kg
No. Dead ([3]; 708 mg/kg oral, 7 Days, females): 0/10
No. Dead ([3]; 708 mg/kg oral, 7 Days, males): 1/10
No. Dead ([3]; 708 mg/kg oral, 14 Days, females): 0/10
No. Dead ([3]; 708 mg/kg oral, 14 Days, males): 1/10
No. Dead ([3]; 1120 mg/kg oral, 7 Days, females): 6/10
No. Dead ([3]; 1120 mg/kg oral, 7 Days, males): 2/10
No. Dead ([3]; 1120 mg/kg oral, 14 Days, females): 6/10
No. Dead ([3]; 1120 mg/kg oral, 14 Days, males): 2/10
No. Dead ([3]; 1120 mg/kg oral, 24 Hours, females): 2/10
No. Dead ([3]; 1120 mg/kg oral, 24 Hours, males): 1/10
No. Dead ([3]; 1780 mg/kg oral, 7 Days, females): 7/10
No. Dead ([3]; 1780 mg/kg oral, 7 Days, males): 9/10
No. Dead ([3]; 1780 mg/kg oral, 14 Days, females): 7/10
No. Dead ([3]; 1780 mg/kg oral, 14 Days, males): 9/10
No. Dead ([3]; 1780 mg/kg oral, 24 Hours, females): 6/10
No. Dead ([3]; 1780 mg/kg oral, 24 Hours, males): 4/10
No. Dead ([3]; 2820 mg/kg oral, 7 Days, females): 10/10
No. Dead ([3]; 2820 mg/kg oral, 7 Days, males): 8/10
No. Dead ([3]; 2820 mg/kg oral, 14 Days, females): 10/10
No. Dead ([3]; 2820 mg/kg oral, 14 Days, males): 8/10
No. Dead ([3]; 2820 mg/kg oral, 24 Hours, females): 9/10
No. Dead ([3]; 2820 mg/kg oral, 24 Hours, males): 8/10
No. Dead ([3]; 4450 mg/kg oral, 7 Days, females): 10/10
No. Dead ([3]; 4450 mg/kg oral, 7 Days, males): 10/10
No. Dead ([3]; 4450 mg/kg oral, 14 Days, females): 10/10
No. Dead ([3]; 4450 mg/kg oral, 14 Days, males): 10/10
No. Dead ([3]; 4450 mg/kg oral, 24 Hours, females): 10/10
No. Dead ([3]; 4450 mg/kg oral, 24 Hours, males): 9/10
percent of total mortalities occurring ([3]; 6 hours post-treatment): 53.9%
percent of total mortalities occurring ([3]; 24 hours post-treatment): 79.3%
percent of total mortalities occurring ([3]; 48 hours post-treatment): 85.7%
percent of total mortalities occurring ([3]; 72 hours post-treatment): 93.6%
